This note sets out measurements from US8835446B2, “Quinazoline derivatives and pharmaceutical compositions thereof” (Nippon Shinyaku Co., Ltd., priority 2005, dated 2014).

Structures are written as SMILES. Where two headings read alike, the source gives them in different places.

The test system of the data set is Rabbits. The settings on record: rabbit, in vivo. From the text:
Then, erythema and edema formation at the application site was observed. […] The mean value of the sum of erythema and edema scores was used as a simple primary skin irritation index. […]

Take `Cc1ccc2nc(C(=O)NCC(C)(C)C)nc(N[C@H]3CCCC[C@H]3NC(=N)N)c2c1.Cl.Cl` [Comparative control B, 4-[((1S,2R)-2-{[amino(imino)methyl]amino}cyclohexyl)amino]-6-methyl-N-neopentyl quinazoline-2-carboxamide dihydrochloride, reference compound]: the “Simple primary skin irritation index” value is on record as 2.4. For `CCOCCNC(=O)c1nc(N[C@H]2CCCC[C@H]2NC(=N)N)c2cc(C)ccc2n1.Cl.Cl` [Comparative control C, 4-[((1S,2R)-2-{[amino(imino)methyl]amino}cyclohexyl)amino]-N-(2-ethoxyethyl)-6-methylquinazoline-2-carboxamide dihydrochloride, reference compound], the “Simple primary skin irritation index” value (female, Kbs: JW, 24 h) worked out at 2.3. On to `COCCCNC(=O)c1nc(N[C@H]2CCCC[C@H]2NC(=N)N)c2cc(C)ccc2n1.Cl.Cl` [Comparative control D, 4-[((1S,2R)-2-{[amino(imino)methyl]amino}cyclohexyl)amino]-N-(3-methoxypropyl)-6-methylquinazoline-2-carboxamide dihydrochloride, reference compound], for which the “Simple primary skin irritation index” value (female, Kbs: JW, 24 h) is listed as 2.0. The same measure, in the same setting: in the case of `Cc1ccc2nc(C(=O)NC(C)C)nc(N[C@H]3CCCC[C@H]3NC(=N)N)c2c1.Cl.Cl` [Comparative control E, 4-[((1S,2R)-2-{[amino(imino)methyl]amino}cyclohexyl)amino]-N-isopropyl-6-methylquinazoline-2-carboxamide dihydrochloride, reference compound] it was 3.6; in that of `COCCNC(=O)c1nc(N[C@H]2CCCC[C@H]2NC(=N)N)c2cc(C)ccc2n1.Cl.Cl` [Comparative control F, 4-[((1S,2R)-2-{[amino(imino)methyl]amino}cyclohexyl)amino]-N-(2-methoxyethyl)-6-methylquinazoline-2-carboxamide dihydrochloride, reference compound], 2.2; in that of `CCOCCNC(=O)c1nc(N[C@H]2CCCC[C@H]2NC(=N)CCO)c2cc(C)ccc2n1.Cl.Cl` [Example 61, N-(2-ethoxyethyl)-4-({(1S,2R)-2-[(3-hydroxypropanimidoyl)amino]cyclohexyl}amino)-6-methylquinazolin-2-carboxamide dihydrochloride], 0.4. In the case of `COCCCNC(=O)c1nc(N[C@H]2CCCC[C@H]2NC(=N)COC)c2cc(C)ccc2n1.Cl.Cl` [Example 93, 4-({(1S,2R)-2-[(2-methoxyethanimidoyl)amino]cyclohexyl}amino)-N-(3-methoxypropyl)-6-methylquinazolin-2-carboxamide dihydrochloride], under “female, Kbs: JW, 24 h”, the “Simple primary skin irritation index” value is 0.2.

For the compound `CCOCCNC(=O)c1nc(N[C@H]2CCCC[C@H]2NC(C)=N)c2cc(C)ccc2n1.Cl.Cl` [Example 94, 4-{[(1S,2R)-2-(ethanimidoylamino)cyclohexyl]amino}-N-(2-ethoxyethyl)-6-methylquinazolin-2-carboxamide dihydrochloride], the “Simple primary skin irritation index” value (female, Kbs: JW, 24 h) turned out to be 1.0.

In the case of `CCOCCNC(=O)c1nc(N[C@H]2CCCC[C@H]2NC(=N)COC)c2cc(C)ccc2n1.Cl.Cl` [Example 95, N-(2-ethoxyethyl)-4-({(1S,2R)-2-[(2-methoxyethanimidoyl)amino]cyclohexyl}amino)-6-methylquinazolin-2-carboxamide dihydrochloride], where the note is “female, Kbs: JW, 24 h”, the “Simple primary skin irritation index” value is recorded as 0.7. `CON(C)C(=N)N[C@@H]1CCCC[C@@H]1Nc1nc(C(=O)NCC(C)C)nc2ccc(C)cc12.Cl.Cl` [Example 236, 4-{[(1S,2R)-2-({imino[methoxy(methyl)amino]methyl}amino)cyclohexyl]amino}-N-isobutyl-6-methylquinazolin-2-carboxamide dihydrochloride]: the “Simple primary skin irritation index” value (female, Kbs: JW, 24 h) is recorded as 1.6.
